Assay results from patent US8258140B2 (Astrazeneca AB, priority 2009, dated 2012).

Biological target: T1, Androgen Receptor (AR) in the LNCaP prostate carcinoma cell line (Homo sapiens, UniProt P10275, T878A)
T1 construct: cell based immuno-fluorescence assay using the LNCaP prostate epithelial cell line; host or cells: LNCaP clone FGC
T1 sequence (P10275 1-920 T878A): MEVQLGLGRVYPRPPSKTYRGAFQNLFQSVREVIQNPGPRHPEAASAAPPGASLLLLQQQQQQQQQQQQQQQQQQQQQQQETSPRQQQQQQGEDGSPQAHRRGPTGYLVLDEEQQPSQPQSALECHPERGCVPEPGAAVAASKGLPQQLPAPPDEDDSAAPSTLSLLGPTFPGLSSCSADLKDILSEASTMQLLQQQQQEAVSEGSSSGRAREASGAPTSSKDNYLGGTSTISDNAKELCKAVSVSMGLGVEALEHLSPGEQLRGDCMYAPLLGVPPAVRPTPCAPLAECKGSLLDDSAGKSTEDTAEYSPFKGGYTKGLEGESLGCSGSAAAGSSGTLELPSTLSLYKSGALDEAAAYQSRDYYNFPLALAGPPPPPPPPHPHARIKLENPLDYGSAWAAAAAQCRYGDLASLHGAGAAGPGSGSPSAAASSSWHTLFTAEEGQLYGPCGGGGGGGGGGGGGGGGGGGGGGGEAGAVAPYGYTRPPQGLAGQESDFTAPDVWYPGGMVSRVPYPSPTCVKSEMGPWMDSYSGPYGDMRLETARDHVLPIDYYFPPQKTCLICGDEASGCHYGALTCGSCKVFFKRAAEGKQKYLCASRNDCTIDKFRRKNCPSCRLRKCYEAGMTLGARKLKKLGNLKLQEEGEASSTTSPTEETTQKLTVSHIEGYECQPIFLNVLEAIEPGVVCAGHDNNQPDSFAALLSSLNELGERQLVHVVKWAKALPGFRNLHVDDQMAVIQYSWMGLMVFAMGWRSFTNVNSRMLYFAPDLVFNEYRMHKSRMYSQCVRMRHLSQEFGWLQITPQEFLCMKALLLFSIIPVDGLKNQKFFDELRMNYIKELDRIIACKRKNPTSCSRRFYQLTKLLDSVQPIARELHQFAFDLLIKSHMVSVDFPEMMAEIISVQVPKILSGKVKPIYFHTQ
Assay: LNCaP Androgen Receptor Down-Regulation Cell Assay (immunofluorescence end point)
Assay type: cell-based
Details: LNCaP cells, compound incubation 20-22 hours, concentration giving 50% reduction of the AR signal
Procedure: The ability of compounds to reduce Androgen Receptor (AR) numbers was assessed in a cell based immuno-fluorescence assay using the LNCaP prostate epithelial cell line.
This immunofluorescence end point assay measures the ability of a test compound to down-regulate and reduce measured levels of the AR in the LNCaP prostate carcinoma cell line (LNCaP clone FGC (CRL-1740) obtained from the American Type Culture Collection (ATCC)).
LNCaP cells were cultured in Growth Medium (phenol red free Roswell Park Memorial Institute (RPMI) 1640 (Invitrogen Code no. 11835-063) containing 2 mM L-Glutamine (Invitrogen Code no. 25030-024) and 1% (v/v) Penicillin/Streptomycin (10000 units/ml Penicillin and 10000 μg/ml of Streptomycin utilising penicillin G (sodium salt) and streptomycin sulphate: prepared in normal saline, Invitrogen Code no. 15140122) and 10% (v/v) foetal bovine serum (FBS)) in a 5% CO2 air incubator at 37° C. Cells for assay were harvested from T175 stock flasks by washing once in PBS (phosphate buffered saline, pH 7.4) (Invitrogen Code no. 14190-094) and harvested using 5 mls of 1× Trypsin/ethylaminediaminetetraacetic acid (EDTA) (10× Trypsin-EDTA, 5.0 g/L Trypsin, 2.0 g/L of EDTA.4Na and 8.5 g/L of NaCl, without Phenol Red, Invitrogen Code no. 15400-054) diluted in PBS solution. A 5 ml volume of Growth Medium was added to each flask (as above except that 5% (v/v) charcoal stripped FBS (HyClone Code no. SH30068.03) was included instead of 10% (v/v) FBS). Cells were syringed at least twice using a sterile 18 G×1.5″ (1.2×40 mm) broad gauge needle and cell density was measured using a haemocytometer. Cells were further diluted in Growth Medium plus 5% (v/v) charcoal stripped FBS and seeded at a density of 6.5×10^3 cells per well (in 90 ul) into transparent, black, tissue culture treated 96 well plates (Packard, No. 6005182).
Test data reported herein was generated using two different compounds preparation and dosing methods. In method (1) a 10 mM compound stock solution in 100% (v/v) DMSO was serially diluted in 4-fold steps in 100% (v/v) DMSO using a Thermo Scientific Matrix SerialMate. The diluted compounds were then further diluted 1 in 30 in assay media using a Thermo Scientific Matrix PlateMate and a 10 μl aliquot of this dilution was dosed to cells manually using a multi-channel pipette. In method (2) starting with a 10 mM compound stock solution, the Labcyte Echo 550 was used to generate a compound concentration response set diluted in 30 μl of assay media. The Echo 550 is a liquid handler that uses acoustic technology to perform direct microplate-to-microplate transfers of DMSO compound solutions. The system can be programmed to transfer volumes as low as 2.5 nL in multiple increments between microplates and in so doing generates a serial dilution of compound which is then back-filled to normalise the DMSO concentration across the dilution range. A 10 μl volume of diluted compound is then dosed to cells using a Thermo Scientific Matrix PlateMate.
Plates were incubated overnight at 37° C., 5% CO2. Wells were then dosed with compound prepared by one of the 2 methods above and further incubated for 20-22 hours at 37° C., 5% CO2. Plates were fixed by the addition of 20 μl of 10% (v/v) formaldehyde solution (in PBS) to each well (final formaldehyde conc.=1.67% (v/v)) and left at room temperature for 10 mins. This fixative solution was removed and cells were washed with 250 μl of PBS/0.05% (v/v) Tween 20 (PBST) using an automated plate washer. This process was then repeated twice more.
Immunostaining was performed at room temperature. Cells were permeabilised by the addition of 35 μl of PBS containing 0.5% Tween 20 and incubated for 1 hour at room temperature. Permeabilisation solution was removed and cells were washed with 250 μl of PBST using an automated plate washer. This process was then repeated twice more. […]

| Compound | IC50 |
| --- | --- |
| CC(=O)N1CCN(CCCOc2ccc(N3CCN(C4=Nn5c(nnc5C(F)(F)F)CC4)CC3)cc2)CC1 [Example 29, 6-(4-{4-[3-(4-acetylpiperazin-1-yl)propoxy]phenyl}piperazin-1-yl)-3-(trifluoromethyl)-7,8-dihydro[1,2,4]triazolo[4,3-b]pyridazine] | 10 µM |
| CS(=O)(=O)N1CCN(CCCOc2ccc(N3CCN(C4=Nn5c(nnc5C(F)(F)F)CC4)CC3)cc2)CC1 [Example 31] | 18 µM |
| N#Cc1ccc2[nH]cc(CN3CCN(C4=Nn5c(nnc5C(F)(F)F)CC4)CC3)c2c1 [Example 13, 3-({4-[3-(trifluoromethyl)-7,8-dihydro[1,2,4]triazolo[4,3-b]pyridazin-6-yl]piperazin-1-yl}methyl)-1H-indole-5-carbonitrile] | > 11 µM |
| 6-(4-{4-[2-(1H-imidazol-1-yl)ethoxy]phenyl}piperidin-1-yl)-3-(trifluoromethyl)-7,8-dihydro[1,2,4]triazolo[4,3-b]pyridazine [Example 41] | 2.9 µM |
| O=C1CN(CCOc2ccc(C3CCN(C4=Nn5c(nnc5C(F)(F)F)CC4)CC3)cc2)CCN1C1CC1 [Example 47, 1-cyclopropyl-4-[2-(4-{1-[3-(trifluoromethyl)-7,8-dihydro[1,2,4]triazolo[4,3-b]pyridazin-6-yl]piperidin-4-yl}phenoxy)ethyl]piperazin-2-one] | 1.4 µM |
| CS(=O)(=O)N1CCN(CCOc2ccc(C3CCN(C4=Nn5c(nnc5C(F)(F)F)CC4)CC3)cc2)CC1 [Example 26, 6-[4-(4-{2-[4-(methylsulfonyl)piperazin-1-yl]ethoxy}phenyl)piperidin-1-yl]-3-(trifluoromethyl)-7,8-dihydro[1,2,4]triazolo[4,3-b]pyridazine] | 1.5 µM |
| CS(=O)(=O)N1CCN(CCCOc2ccc(C3CCN(C4=Nn5c(nnc5C(F)(F)F)CC4)CC3)cc2)CC1 [Example 28, 6-[4-(4-{3-[4-(methylsulfonyl)piperazin-1-yl]propoxy}phenyl)piperidin-1-yl]-3-(trifluoromethyl)-7,8-dihydro[1,2,4]triazolo[4,3-b]pyridazine] | 1 µM |
| FC(F)(F)c1ccn(CCOc2ccc(N3CCN(C4=Nn5c(nnc5C(F)(F)F)CC4)CC3)cc2)n1 [Example 40, 3-(trifluoromethyl)-6-[4-(4-{2-[3-(trifluoromethyl)-1H-pyrazol-1-yl]ethoxy}phenyl)piperazin-1-yl]-7,8-dihydro[1,2,4]triazolo[4,3-b]pyridazine] | 1.5 µM |
| CS(=O)(=O)N1CCN(CCOc2ccc(N3CCN(C4=Nn5c(nnc5C(F)(F)F)CC4)CC3)cc2)CC1 [Example 34, 6-[4-(4-{2-[4-(methylsulfonyl)piperazin-1-yl]ethoxy}phenyl)piperazin-1-yl]-3-(trifluoromethyl)-7,8-dihydro[1,2,4]triazolo[4,3-b]pyridazine] | 23 µM |
| Fc1cccc(CN2CCN(C3=Nn4c(nnc4C(F)(F)F)CC3)CC2)c1 [Example 6, 6-[4-(3-fluorobenzyl)piperazin-1-yl]-3-(trifluoromethyl)-7,8-dihydro[1,2,4]triazolo[4,3-b]pyridazine] | 4 µM |
| Fc1ccc2[nH]cc(CN3CCN(C4=Nn5c(nnc5C(F)(F)F)CC4)CC3)c2c1 [Example 12, 6-{4-[(5-fluoro-1H-indol-3-yl)methyl]piperazin-1-yl}-3-(trifluoromethyl)-7,8-dihydro[1,2,4]triazolo[4,3-b]pyridazine] | 3.4 µM |
| FC(F)(F)c1nnc2n1N=C(N1CC=C(c3c[nH]c4ncccc34)CC1)CC2 [Example 17, 6-[4-(1H-pyrrolo[2,3-b]pyridin-3-yl)-3,6-dihydropyridin-1(2H)-yl]-3-(trifluoromethyl)-7,8-dihydro[1,2,4]triazolo[4,3-b]pyridazine] | 4.4 µM |
| 6-(4-{4-[2-(1H-imidazol-1-yl)ethoxy]phenyl}piperazin-1-yl)-3-(trifluoromethyl)-7,8-dihydro[1,2,4]triazolo[4,3-b]pyridazine [Example 38] | 7.8 µM |
| CCCCC(=O)N1CCN(CCCOc2ccc(N3CCN(C4=Nn5c(nnc5C(F)(F)F)CC4)CC3)cc2)CC1 [Example 30, 6-(4-{4-[3-(4-pentanoylpiperazin-1-yl)propoxy]phenyl}piperazin-1-yl)-3-(trifluoromethyl)-7,8-dihydro[1,2,4]triazolo[4,3-b]pyridazine] | 6.7 µM |

Second part, the compound after the results:

| IC50 | Compound |
| --- | --- |
| 0.14 µM | CC(=O)N1CCN([C@@H](C)COc2ccc(C3CCN(C4=Nn5c(nnc5C(F)(F)F)CC4)CC3)cc2)CC1 (single isomer, unassigned) [Example 54] |
| 0.46 µM | CCCCN(C)C(=O)COc1ccc(C2CCN(C3=Nn4c(nnc4C(F)(F)F)CC3)CC2)cc1 [Example 22, N-butyl-N-methyl-2-(4-{1-[3-(trifluoromethyl)-7,8-dihydro[1,2,4]triazolo[4,3-b]pyridazin-6-yl]piperidin-4-yl}phenoxy)acetamide] |
| 1 µM | Cc1cc(C)n(CCOc2ccc(C3CCN(C4=Nn5c(nnc5C(F)(F)F)CC4)CC3)cc2)n1 [Example 43, 6-(4-{4-[2-(3,5-dimethyl-1H-pyrazol-1-yl)ethoxy]phenyl}piperidin-1-yl)-3-(trifluoromethyl)-7,8-dihydro[1,2,4]triazolo[4,3-b]pyridazine] |
| 0.38 µM | C[C@H](COc1ccc(C2CCN(C3=Nn4c(nnc4C(F)(F)F)CC3)CC2)cc1)N1CCN(C)C(=O)C1 (single isomer, unassigned) [Example 56] |
| 2.5 µM | CN(CCO)C(=O)CCCOc1ccc(C2CCN(C3=Nn4c(nnc4C(F)(F)F)CC3)CC2)cc1 [Example 24] |
| 26 µM | CN(CCO)C(=O)COc1ccc(C2CCN(C3=Nn4c(nnc4C(F)(F)F)CC3)CC2)cc1 [Example 21, N-(2-hydroxyethyl)-N-methyl-2-(4-{1-[3-(trifluoromethyl)-7,8-dihydro[1,2,4]triazolo[4,3-b]pyridazin-6-yl]piperidin-4-yl}phenoxy)acetamide] |
| 0.94 µM | Cn1nccc1CCOc1ccc(C2CCN(C3=Nn4c(nnc4C(F)(F)F)CC3)CC2)cc1 [Example 15, 6-[4-[4-[2-(1-methyl-1H-pyrazol-5-yl)ethoxy]phenyl]piperidin-1-yl]-3-(trifluoromethyl)-7,8-dihydro[1,2,4]triazolo[4,3-b]pyridazine] |
